Like-named read-outs stand apart in the source and are kept apart here. Marks after values point to notes of the source that are not given here.
Experiments:
mice [1] = experiment: locomotor activity, 8-h time course protocol; assay type: in vivo; conditions: for Emax / ED50: Mus musculus; for Emax: read-out: Locomotor Activity 8-Hour % Peak Cocaine, percent of cocaine's maximal effect, 30 min period of maximum stimulation; for ED50: read-out: Locomotor Activity 8-Hour ED50; for Locomotor Activity 8-Hour Time, min Period, length: duration of locomotor activity; for Locomotor Activity 8-Hour Time, min Period, max: time period of maximum effect; for locomotor stimulant activity across the 1-h and 8-h protocols, in words: 1-h and 8-h tests compared
(h)NET [2] = target: T1, (h)NET (Homo sapiens, UniProt P23975); experiment: competition binding with [125I]RTI-55 at (h)NET stably expressed in HEK293 cells; conditions: read-out: Binding, Ki NET; mean ± standard error of three independent experiments
(h)NET [3] = target: T1, (h)NET; experiment: block of [3H]norepinephrine reuptake in HEK-(h)NET cells; conditions: read-out: Uptake, IC50 [3H]NE; mean ± standard error of three independent experiments
(h)DAT [4] = target: T2, (h)DAT (Homo sapiens, UniProt Q01959); experiment: competition binding with [125I]RTI-55 at (h)DAT stably expressed in HEK293 cells; conditions: mean ± standard error of three independent experiments
T2 construct: expressed in transfected cells

(h)DAT [5] = target: T2, (h)DAT; experiment: block of [3H]dopamine reuptake in HEK-(h)DAT cells; assay type: cell-based
rats [6] = experiment: cocaine discrimination (2-lever operant), i.p. administration; conditions: for responders at 5 mg/kg / responders at 10 mg/kg / responders at 25 mg/kg / ED50 / responders at 50 mg/kg / responders at 100 mg/kg: Rattus norvegicus, ip; for responders at 5 mg/kg / responders at 10 mg/kg / responders at 25 mg/kg / responders at 50 mg/kg / responders at 100 mg/kg: read-out: % cocaine lever responding; for ED50: read-out: Full Generalization ED50
rats [7] = experiment: cocaine discrimination time-course study, oral administration; conditions: for ED50: Rattus norvegicus, po, 0.75 h; for generalization to cocaine: p.o., 50 mg/kg
mice [8] = experiment: locomotor activity, 1-h observation protocol; assay type: in vivo; conditions: for Emax / ED50: Mus musculus; for Emax: 0.5 h, read-out: Locomotor Activity 1-Hour % Peak Cocaine; for ED50 / Locomotor Activity 1-Hour ED50: dose to produce 50% of the compound's maximal effect, 1-h
[9] = dose to produce 50% of the compound's maximal effect, 8-h
[10] = [3H]DA, read-out: IC50 for DA uptake inhibition
[11] = mean ± standard error of three independent experiments, read-out: Uptake, IC50 [3H]DA

T1 sequence (P23975 whole entry): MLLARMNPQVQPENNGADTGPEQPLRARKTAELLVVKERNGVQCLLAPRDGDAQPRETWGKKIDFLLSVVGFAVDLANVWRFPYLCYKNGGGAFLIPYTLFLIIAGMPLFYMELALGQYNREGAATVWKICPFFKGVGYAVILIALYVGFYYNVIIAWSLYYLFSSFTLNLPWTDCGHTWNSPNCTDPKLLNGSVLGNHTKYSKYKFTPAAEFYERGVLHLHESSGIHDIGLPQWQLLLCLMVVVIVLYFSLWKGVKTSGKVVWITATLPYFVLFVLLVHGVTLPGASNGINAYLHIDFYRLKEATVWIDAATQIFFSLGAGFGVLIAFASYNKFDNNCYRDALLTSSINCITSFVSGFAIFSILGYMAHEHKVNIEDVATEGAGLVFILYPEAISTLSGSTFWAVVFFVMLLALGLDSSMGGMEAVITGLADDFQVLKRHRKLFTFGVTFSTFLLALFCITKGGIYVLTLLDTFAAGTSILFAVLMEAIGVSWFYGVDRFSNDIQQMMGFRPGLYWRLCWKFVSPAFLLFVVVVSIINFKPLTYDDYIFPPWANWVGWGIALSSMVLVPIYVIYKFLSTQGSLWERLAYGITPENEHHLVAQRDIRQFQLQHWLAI
T2 sequence (Q01959 whole entry): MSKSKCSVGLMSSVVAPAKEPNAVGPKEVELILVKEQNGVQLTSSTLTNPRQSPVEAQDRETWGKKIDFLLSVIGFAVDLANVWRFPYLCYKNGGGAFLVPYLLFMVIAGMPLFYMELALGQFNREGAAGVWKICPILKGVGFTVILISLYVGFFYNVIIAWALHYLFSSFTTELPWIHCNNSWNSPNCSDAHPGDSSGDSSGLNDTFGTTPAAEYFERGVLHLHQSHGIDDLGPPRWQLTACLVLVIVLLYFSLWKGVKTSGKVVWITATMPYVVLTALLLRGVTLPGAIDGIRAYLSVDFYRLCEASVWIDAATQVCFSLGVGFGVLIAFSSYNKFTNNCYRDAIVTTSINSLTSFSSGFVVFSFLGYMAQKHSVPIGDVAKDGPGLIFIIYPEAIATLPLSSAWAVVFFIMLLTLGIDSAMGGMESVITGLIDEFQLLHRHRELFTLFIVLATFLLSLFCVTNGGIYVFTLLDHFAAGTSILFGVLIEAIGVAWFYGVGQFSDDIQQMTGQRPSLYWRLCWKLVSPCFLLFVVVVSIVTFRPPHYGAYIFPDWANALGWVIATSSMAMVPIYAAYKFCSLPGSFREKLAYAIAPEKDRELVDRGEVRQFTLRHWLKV

| SMILES | Emax (mice [1]) [%] | ED50 (mice [1]; [9]) [mg/kg] | Locomotor Activity 8-Hour Time, min Period, length (mice [1]) [min] | Locomotor Activity 8-Hour Time, min Period, max (mice [1]) [min] | IC50 ((h)NET [3]) [nM] | Ki ((h)DAT [4]) [nM] | responders at 5 mg/kg (rats [6]) [%] | responders at 10 mg/kg (rats [6]) [%] | responders at 25 mg/kg (rats [6]) [%] | ED50 (rats [6]) [mg/kg] | ED50 (rats [7]) [mg/kg] | Emax (mice [8]) [%] | ED50 (mice [8]) [mg/kg] | locomotor stimulant activity across the 1-h and 8-h protocols, in words (mice [1]) | responders at 50 mg/kg (rats [6]) [%] | IC50 ((h)DAT [5]; [11]) [nM] | other results |
| --- | --- | --- | --- | --- | --- | --- | --- | --- | --- | --- | --- | --- | --- | --- | --- | --- | --- |
| CCCCC(NC(C)(C)C)C(=O)c1cccc(Cl)c1 (stereo not drawn) [Compound 2q, 2-(N-tert-Butylamino)-3′-chlorohexanophenone] | 110 | 13.1 | 40 to 460 | 0 to 30 | 400 | 350 | 1 | 67 | 10 | 8.17 | 37.9 | 81 | 13.5 | – | – | – | Ki ((h)NET [2]): 3190 nM; IC50 ((h)DAT [5]; [10]): 69 nM; times more potent than bupropion as DA uptake inhibitor ((h)DAT [5]; relative to bupropion): 14 times |
| Cc1ccc(C(=O)C(C)NC(C)(C)C)cc1 (stereo not drawn) [Compound 2h, 2-(N-tert-Butylamino)-4′-methylpropiophenone] | 52 | – | 60 to 140 | 30 to 60 | – | – | 0 | 0 | 17 | 36.7 | – | 65 | 8.77 | weak stimulants in both tests | 67 | – | ED50 (mice [1]; 8 h): 4.4 mg/kg; responders at 100 mg/kg (rats [6]): 10% |
| CC(NC(C)(C)C)C(=O)c1cccc(Cl)c1 (racemic) [Compound 2a, (±)-2-tert-butylamino-3′-chloropropiophenone, reference compound] | > 84 | – | 130 to 270 | 0 to 30 | – | – | 0 | 67 | 66 | – | 23.2 | – | – | – | – | – | ED50 (mice [1]; 8 h): 6.5 mg/kg; times less potent inhibitor of DA uptake than cocaine ((h)DAT [5]; relative to cocaine): 3.5 times; generalization to the cocaine cue, in words (rats [6]; i.p.): substituted only partially; cocaine-appropriate responding (rats [6]; i.p., 10 mg/kg): 67%; response rate, in words (rats [6]; i.p., dose range given in the value): increased relative to vehicle control following 5-25 mg/kg; ED50 (rats [7]; read-out: ED50 for drug-appropriate responding): 23.2 mg/kg; generalization to cocaine (rats [7]; 45 min): full generalization; generalization to cocaine (rats [7]; 90 min): partial generalization |
| CC(NC(C)(C)C)C(=O)c1ccc(Cl)cc1 (stereo not drawn) [Compound 2f, 2-(N-tert-Butylamino)-4′-chloropropiophenone] | – | – | – | 180 to 210 | – | 2200 | 0 | 33 | 17 | – | – | – | – | – | 0 | 2320 | responders at 100 mg/kg (rats [6]): 34%; Locomotor Activity 1-Hour ED50 (mice [8]): NE^f |
| CC(NC(C)(C)C)C(=O)c1ccc(F)c(F)c1 (stereo not drawn) [Compound 2i, 2-tert-Butylamino-3′,4′-difluoropropiophenone] | – | – | – | – | – | – | – | 2 | 17 | – | – | 58 | 54.6 | – | 47 | – | – |
| CC(NC(C)(C)C)C(=O)c1cccc(F)c1 (stereo not drawn) [Compound 2c, 2-(tert-Butylamino)-3′-fluoropropiophenone] | 90 | 16.6 | 150 | 0 to 30 | – | 4510 | 1 | 0 | 50 | 10.8 | 27.1 | 84 | 16.1 | strong stimulants in both studies | 10 | 1460 | – |
| CC(NC(C)(C)C)C(=O)c1cc(F)cc(F)c1 (stereo not drawn) [Compound 2m, 2-(tert-Butylamino)-3′,5′-difluoropropiophenone] | 95 | 33.7 | 280 | 0 to 30 | – | 5660 | – | 17 | 50 | 17.9 | 43.6 | 93 | 39.7 | strong stimulants in both studies | 83 | 5600 | – |
| CC(NC(C)(C)C)C(=O)c1ccccc1 (stereo not drawn) [Compound 2b, 2-(N-tert-Butylamino)propiophenone] | 98 | 10.5 | – | 0 to 30 | 8700 | 5730 | 3 | 83 | 83 | 5.65 | 25.6 | 120 | 8.1 | strong stimulants in both studies | – | 2310 | Ki ((h)NET [2]): 5700 nM |
| CC(NC(C)(C)C)C(=O)c1cc(Cl)cc(Cl)c1 (stereo not drawn) [Compound 2n, 2-(tert-Butylamino)-3′,5′-dichloropropiophenone] | – | – | – | – | – | – | – | – | – | – | – | – | – | – | – | – | Locomotor Activity 1-Hour ED50 (mice [8]): NE^f |
| CCCCCC(NC(C)(C)C)C(=O)c1cccc(Cl)c1 (stereo not drawn) [Compound 2r, 2-(N-tert-Butylamino)-3′-chloroheptanophenone] | 78 | 13.4 | 280 to 460 | 60 to 90 | 2000 | 709 | 0 | 0 | 34 | – | – | 66 | 5.82 | weak stimulants in both tests | 17 | 1570 | Ki ((h)NET [2]): 4300 nM |
| CCN(CC)C(C)C(=O)c1cccc(Cl)c1 (stereo not drawn) [Compound 2ee, 2-(N,N-Diethylamino)-3′-chloropropiophenone] | 90 | 20 | 130 to 240 | 20 to 50 | 4600 | 2210 | 1 | 66 | 82 | 5.88 | – | 55 | 16.6 | moderate activity in the 1-h test with increased activity in the time-course study | – | 1740 | Ki ((h)NET [2]): 4480 nM |
| CC(NC(C)(C)C)C(=O)c1cccc(Br)c1 (stereo not drawn) [Compound 2d, 2-(N-tert-Butylamino)-3′-bromopropiophenone] | 57 | 12.9 | 120 | 0 to 30 | 6500 | 4200 | 1 | 27 | 83 | 11.4 | 52.4 | 72 | 10.6 | weak stimulants in both tests | – | – | IC50 ((h)DAT [5]; [10]): 950 nM |
| COC(=O)[C@H]1[C@@H](OC(=O)c2ccccc2)C[C@@H]2CC[C@H]1N2C [cocaine, reference compound] | 100 | – | 40 to 100 | 0 to 30 | – | – | – | – | – | – | – | 100 | 8.5 to 11 | – | – | – | Locomotor Activity 1-Hour ED50 (mice [8]): 8.5-11^e mg/kg |
| CC(C)NC(C)C(=O)c1cccc(Cl)c1 (stereo not drawn) [Compound 2w, 2-(N-Isopropylamino)-3′-chloropropiophenone] | 65 | – | 50 to 160 | 20 to 50 | – | 3980 | – | – | – | – | – | 84 | – | activity similar to cocaine in the 1-h protocol but weakened significantly in the 8-h time-course study | – | – | ED50 (mice [1]; 8 h): 7.4 mg/kg; IC50 ((h)DAT [5]; [10]): 2000 nM; times less potent than bupropion as DA uptake inhibitor ((h)DAT [5]; relative to bupropion): 2 times |
| CC(C(=O)c1cccc(Cl)c1)N(C)C(C)(C)C (stereo not drawn) [Compound 2cc, 2-(N-Methyl-N-tert-butylamino)-3′-chloropropiophenone] | 67 | 11.2 | 200 to 340 | 80 to 110 | – | 6400 | 0 | 49 | 50 | – | – | 78 | 14.9 | weak stimulants in both tests | – | 2060 | – |
| Cc1cccc(C(=O)C(C)NC(C)(C)C)c1 (stereo not drawn) [Compound 2e, 2-(N-tert-Butylamino)-3′-methylpropiophenone] | – | – | – | – | – | – | – | – | – | – | – | 76 | 31 | – | – | – | – |

Source: patent US10919841B2, “Monoamine reuptake inhibitors” (Research Triangle Institute, priority 2009, dated 2021)
